Holding throughout (experiment): In vitro antibacterial activity, tube dilution method (Nutrient Broth)
Holding throughout (type): cell-based

In one assay the test system is Ps. aeruginosa A9843. As to conditions: Pseudomonas aeruginosa. From the text:
(§1) In vitro Antibacterial Activity of BB-S266 by Tube Dilution Method (Nutrient Broth).

The next assay relates to Dip. pneumoniae. The note with it: Streptococcus pneumoniae.
Source text: as §1

The test system of a further assay is Ser. marcescens A20019. As to conditions: Serratia marcescens.
Source text: as §1

A further assay concerns Kl. pneumoniae A9977. The note with it: Klebsiella pneumoniae.
Source text: as §1

Another assay concerns E. coli Juhl A15119. As to conditions: Escherichia coli, JUHLA15119.
Source text: as §1

The subject of another assay is Kl. pneumoniae A15130. The note with it: Klebsiella pneumoniae.
Source text: as §1

The next assay has as its system E. coli ATCC 8739. The note with it: Escherichia coli, ATCC8739.
Source text: as §1

The subject of the next assay is S. aureus Smith. The note with it: Staphylococcus aureus.
Source text: as §1

The next assay relates to Mycobacterium 607.
Source text: as §1

A further assay deals with Sal. enteritidis A9531. As to conditions: Salmonella enterica.
Source text: as §1

The subject of the next assay is Pr. mirabilis A9900. As to conditions: Proteus mirabilis.
Source text: as §1

For a further assay, the system named is S. aureus Russel. The note with it: Staphylococcus aureus.
Source text: as §1

The next assay concerns E. coli NIHJ. As to conditions: Escherichia coli.
Source text: as §1

A further assay has as its system St. pyogenes A9604. As to conditions: Streptococcus pyogenes.
Source text: as §1

Another assay concerns Pr. morganii A15153. The note with it: Morganella morganii.
Source text: as §1

For a further assay, the system named is S. aureus BX-1633. The note with it: Staphylococcus aureus, BX1633.
Source text: as §1

Structures are written as SMILES. In brackets after ≈: the same amount, converted by molar mass. Some results are limits rather than exact numbers.

With `O=C(O)C1=C(CSc2ccc3nnnn3n2)CS[C@@H]2C(NC(=O)[C@H](O)c3ccccc3)C(=O)N12` (stereo partly drawn) [BB-S266, 7-(D-α-HYDROXY-α-PHENYLACETAMIDO)-3-(TETRAZOLO[4,5-B]PYRIDAZIN-6-YLTHIOMETHYL)-3-CEPHEM-4-CARBOXYLIC ACID], the minimum inhibitory concentration (MIC) (as a rule, the lowest concentration that inhibits growth of the organism) was under 100 µg/mL in the assay on Ps. aeruginosa A9843; 0.01 µg/mL (≈ 0.02 µM) in the assay on Dip. pneumoniae; 100 µg/mL (≈ 200 µM) in the assay on Ser. marcescens A20019; 3.1 µg/mL (≈ 6.21 µM) against Kl. pneumoniae A9977; 3.1 µg/mL (≈ 6.21 µM) with E. coli Juhl A15119; 3.1 µg/mL (≈ 6.21 µM) with Kl. pneumoniae A15130. For the same compound, the MIC against E. coli ATCC 8739 was 1.6 µg/mL (≈ 3.2 µM); in the assay on S. aureus Smith (S. aureus Smith), 0.1 µg/mL (≈ 0.2 µM); with S. aureus Smith (S. aureus Smith + 50% serum), 0.2 µg/mL; against Mycobacterium 607, under 100 µg/mL; in the assay with Sal. enteritidis A9531, 0.4 µg/mL (≈ 0.801 µM); in the assay on Pr. mirabilis A9900 it was 6.3 µg/mL (≈ 12.6 µM). The MIC with S. aureus Russel stood at 0.4 µg/mL (≈ 0.801 µM); in the assay on E. coli NIHJ it was 0.08 µg/mL (≈ 0.16 µM); with St. pyogenes A9604, 0.01 µg/mL (≈ 0.02 µM); in the assay with Pr. morganii A15153, 50 µg/mL (≈ 100 µM); in the assay with S. aureus BX-1633, 0.8 µg/mL (≈ 1.6 µM).
